Like-named read-outs stand apart in the source and are kept apart here.
How the values were obtained:
[1] = Blood concentration assay of sorafenib, mice bearing MHCC97-L tumours; format: in vivo; settings: nude, mouse, plasma, 2 mg/kg, 2 mg/kg oral
Method: Table notes: After overexpression of TPX2 in MHCC97-L cells, the cells were inoculated with nude mice to form subcutaneous tumour tissue (the volume of tumour tissue was approximately 1 g) and then given 2 mg/kg via oral administration. After overexpression of TPX2 in MHCC97-L cells, the cells were inoculated into nude mice to form subcutaneous tumour tissue and then in situ liver tumour tissue was established. 2mg/kg via oral administration was given to nude mice. Thereafter, blood levels of sorafenib were measured.

[2] = Blood concentration assay of sorafenib, mice bearing MHCC97-H tumours; format: in vivo; settings: nude, mouse, plasma, 2 mg/kg, 2 mg/kg oral
Method: Table notes: After knockdown of TPX2 in MHCC97-H cells, the cells were inoculated with nude mice to form subcutaneous tumour tissue (the volume of tumour tissue was approximately 1 g) and then given 2 mg/kg via oral administration. After knockdown TPX2 in MHCC97-H cells, the cells were inoculated into nude mice to form subcutaneous tumour tissue and then in situ liver tumour tissue was established. 2mg/kg via oral administration was given to nude mice. Thereafter, blood levels of sorafenib were measured.

[3] = Sorafenib metabolism/clearance in cultured cells, LC-MS/MS; format: in vitro ADME; settings: human
Method: (§1) After incubation with sorafenib was complete, the medium containing sorafenib was discarded and replaced with normal DMEM + FBS for continuous cultures. Cell samples were collected at each time point starting at 0 (when the cell samples were collected immediately after the incubation step/baseline) followed by 4, 8, 12, 24, and 48 h.
(§2) For sorafenib-treated samples in cellular experiments, sorafenib processing and extraction of the samples were performed. HCC cell samples were re-suspended in PBS after which the organic solvent acetonitrile at a ratio of 1:1 was added. The samples were then crushed and extracted for about 30 min with vortex shaking. After that step, the samples were centrifuged at 12,000 rpm at 4 °C for about 15 to 20 min. At this time, the samples were separated into cell debris, organic, and water phases. The collected organic phase contained the sample of sorafenib in acetonitrile.
(§3) S transition pair was detected using LC–MS/MS: (1) the parent ion was 465 Da and (2) the product ion was 252 Da.
(§4) All statistical analyses in the presence work were performed using the GraphPad 8.0 (GraphPad Software Corporation, Armonk, NY, USA). […] For the survival analysis data, the survival curves were analyzed by the log-rank (Mantel–Cox) test to detect the P-value of the survival curve, the median survival time, and the 95% confidence interval (CI). For the co-relationship analysis, the data were analyzed by linear regression to determine the overall trend of a group of data points. […] If the slope was positive, the horizontal coordinate was positively related to the vertical coordinate, and if the slope was negative, the horizontal coordinate was negatively related to the vertical coordinate. For the multi-grouped data, the ordinary one-way analysis of variance (ANOVA) and multiple comparison methods were used. An ANOVA was used to examine whether any difference between groups could be detected. The multiple comparisons (t-test) was used to detect differences between pairs of data.

[4] = Sorafenib metabolism/clearance in subcutaneous tumor tissues, LC-MS/MS; format: in vivo, nude mice; settings: nude, mouse, read-out: t1/2 values (converted)
Method: (§5) For HCC subcutaneous tumor tissue, HCC cells were first cultured for transfection after which the cells were inoculated subcutaneously into nude mice to form tumor tissue. […] The HCC tumor tissues were collected at each time point described previously with the addition of 72 and 96 h.
(§6) During the extraction of sorafenib samples from HCC tissue samples, the tissue samples were shredded to form tissue micro-blocks and then ground with liquid nitrogen. The samples ground with liquid nitrogen were mixed with PBS and then mixed with the organic solvent acetonitrile at a ratio of 1:1. The samples were then crushed and extracted for about 30 min using vortex shaking. After that, the samples were centrifuged at 12,000 rpm and at 4 °C for about 15 to 20 min. At this time, the sample was separated into cell debris and organic and water phases.
as §3, §4

[5] = tested on: subcutaneous tumor tissue formed by MHCC97-L cells; test: as above; format: in vivo, nude mice; settings: MHCC97-L subcutaneous tumour tissues, control group (rifampicin experiment)
Method: as §5, §6, §3, §4

[6] = tested on: HCC cells (MHCC97-H, MHCC97-L, or HepG2); test: Sorafenib retention in cultured HCC cells, LC-MS/MS; format: in vitro ADME, human; settings: 48-h time point after 1 μmol/L incubation
Method: as §1, §2, §3

[7] = oral, Subcutaneous MHCC97-L Control tumour
[8] = oral, Subcutaneous MHCC97-L TPX2 tumour
[9] = po, intrahepatic MHCC97-L Control tumour
[10] = po, intrahepatic MHCC97-L TPX2 tumour
[11] = oral, Subcutaneous MHCC97-H Control tumour
[12] = oral, Subcutaneous MHCC97-H siTPX2 tumour
[13] = po, intrahepatic MHCC97-H Control tumour
[14] = po, intrahepatic MHCC97-H siTPX2 tumour

Compound: CNC(=O)c1cc(Oc2ccc(NC(=O)Nc3ccc(Cl)c(C(F)(F)F)c3)cc2)ccn1 [sorafenib]
- concentration at 2 h [1, 7]: 17.4 ± 9.73 ng/mL
- concentration at 2 h [1, 8]: 13.9 ± 6.77 ng/mL
- concentration at 8 h [1, 7]: 142 ± 26.8 ng/mL
- concentration at 8 h [1, 8]: 122 ± 27.9 ng/mL
- concentration at 20 h [1, 7]: 112 ± 30.5 ng/mL
- concentration at 20 h [1, 8]: 99.8 ± 19.6 ng/mL
- concentration at 40 h [1, 7]: 44.4 ± 16.9 ng/mL
- concentration at 40 h [1, 8]: 29.6 ± 17.2 ng/mL
- concentration at 2 h [1, 9]: 17.9 ± 8.39 ng/mL
- concentration at 2 h [1, 10]: 18.1 ± 9.63 ng/mL
- concentration at 8 h [1, 9]: 138 ± 27.9 ng/mL
- concentration at 8 h [1, 10]: 144 ± 30 ng/mL
- concentration at 20 h [1, 9]: 117 ± 29.9 ng/mL
- concentration at 20 h [1, 10]: 115 ± 29.9 ng/mL
- concentration at 40 h [1, 9]: 51.6 ± 17.2 ng/mL
- concentration at 40 h [1, 10]: 41.4 ± 19.1 ng/mL
- concentration at 2 h [2, 11]: 23.3 ± 16.6 ng/mL
- concentration at 2 h [2, 12]: 33.2 ± 19.4 ng/mL
- concentration at 8 h [2, 11]: 152 ± 25.4 ng/mL
- concentration at 8 h [2, 12]: 170 ± 32.3 ng/mL
- concentration at 20 h [2, 11]: 123 ± 23.6 ng/mL
- concentration at 20 h [2, 12]: 142 ± 21.4 ng/mL
- concentration at 40 h [2, 11]: 63 ± 14.5 ng/mL
- concentration at 40 h [2, 12]: 77.5 ± 23.5 ng/mL
- concentration at 2 h [2, 13]: 22.5 ± 11.8 ng/mL
- concentration at 2 h [2, 14]: 24.3 ± 14.2 ng/mL
- concentration at 8 h [2, 13]: 146 ± 28.7 ng/mL
- concentration at 8 h [2, 14]: 152 ± 22.1 ng/mL
- concentration at 20 h [2, 13]: 120 ± 32 ng/mL
- concentration at 20 h [2, 14]: 127 ± 31.2 ng/mL
- concentration at 40 h [2, 13]: 46.8 ± 31.9 ng/mL
- concentration at 40 h [2, 14]: 57.8 ± 27.6 ng/mL
- half-life at 1 μmol/L ([3]; HepG2 cells, Control, median (95% CI), read-out: t1/2 values (converted)): 18.9 h
- half-life at 1 μmol/L ([3]; HepG2 cells, TPX2 overexpression, median (95% CI), read-out: t1/2 values (converted)): 13.7 h
- half-life at 1 μmol/L ([3]; HepG2 cells, siTPX2, read-out: t1/2 values (converted)): > 24 h
- half-life at 1 μmol/L ([3]; MHCC97-H cells, Control, median (95% CI), read-out: t1/2 values (converted)): 15.5 h
- half-life at 1 μmol/L ([3]; MHCC97-H cells, siTPX2, median (95% CI), read-out: t1/2 values (converted)): 36.6 h
- half-life at 1 μmol/L ([3]; MHCC97-L cells, Control, median (95% CI), read-out: t1/2 values (converted)): 18.7 h
- half-life at 1 μmol/L ([3]; MHCC97-L cells, TPX2 overexpression, median (95% CI), read-out: t1/2 values (converted)): 11.9 h
- half-life ([4]; subcutaneous tumor tissue formed by HepG2 cells, Control, median (95% CI)): 29.4 h
- half-life ([4]; subcutaneous tumor tissue formed by HepG2 cells, TPX2 overexpression, median (95% CI)): 18.5 h
- half-life ([4]; subcutaneous tumor tissue formed by HepG2 cells, siTPX2, median (95% CI)): 42.2 h
- half-life ([4]; subcutaneous tumor tissue formed by MHCC97-H cells, Control, median (95% CI)): 19.7 h
- half-life ([4]; subcutaneous tumor tissue formed by MHCC97-H cells, siTPX2, median (95% CI)): 27.5 h
- half-life ([4]; subcutaneous tumor tissue formed by MHCC97-L cells, MHCC97-L tumor tissues, Control, median (95% CI)): 28.3 h
- half-life ([4]; subcutaneous tumor tissue formed by MHCC97-L cells, MHCC97-L tumor tissues, TPX2 overexpression, median (95% CI)): 13.5 h
- half-life ([4]; subcutaneous tumor tissue formed by MHCC97-L cells, other: injected directly into the tumor tissue, MHCC97-L subcutaneous tumour tissues, TPX2 overexpression + rifampicin 5 mg/kg oral): 11.4 h
- half-life ([4]; subcutaneous tumor tissue formed by MHCC97-L cells, other: injected directly into the tumor tissue, MHCC97-L subcutaneous tumour tissues, TPX2 overexpression group (rifampicin experiment)): 14 h
- t1/2 values [5]: 29.70 [21.38–36.75]
- metabolism and elimination in cultured HCC cells [6]: almost completely metabolized and eliminated
